BigSolDB 2.1

c1ccc2[nH]c(-c3cscn3)nc2c1
solubility (mole fraction)
Settings | 283.15 K | 288.15 K | 293.15 K | 298.15 K | 303.15 K | 308.15 K | 313.15 K | 318.15 K | 323.15 K
in acetonitrile | 0.000106 | 0.000125 | 0.00015 | 0.000177 | 0.000213 | 0.000259 | 0.0003 | 0.000353 | 0.000419
in isopropanol | 0.000682 | 0.000785 | 0.000915 | 0.00103 | 0.00121 | 0.00137 | 0.00155 | 0.00174 | 0.00193
in methanol | 0.0013 | 0.00147 | 0.00163 | 0.00181 | 0.002 | 0.00223 | 0.00248 | 0.00273 | 0.00297
in n-propanol | 0.00136 | 0.00156 | 0.00177 | 0.002 | 0.00225 | 0.00252 | 0.00282 | 0.00314 | 0.00347
in water | 2.04e-07 | 2.67e-07 | 3.42e-07 | 4.23e-07 | 5.25e-07 | 6.68e-07 | 8.6e-07 | 1.08e-06 | 1.36e-06
